{"source": "paper PMC12055592", "about": "“Post-symptomatic NLRP3 inhibition rescues cognitive impairment and mitigates amyloid and tau driven neurodegeneration” (Npj Dementia, 2025)", "key": {"5XFAD/Rubicon KO mice [1]": {"test_system": "5XFAD/Rubicon KO mice", "assay": "Novel object recognition in 5XFAD/Rubicon KO mice", "type": "in vivo, mouse", "protocol": "(§1) 5XFAD/Rubicon KO mice received vehicle (0.5% w/v methylcellulose/0.1% w/v Tween® 80 in water) or VEN-02XX (0.01, 1, or 20 mg/kg) every day by oral gastric gavage for 9 weeks.\nMice were acclimated to the testing room for 48 h. For habituation, mice were allowed to explore an open-field box (50 cm × 50 cm) for 15 min per day over the course of 48 h. Mice were then exposed to two identical objects for 10 min on the day of testing. One hour later, a novel object was introduced, and mice were allowed to explore for 5 min during the test phase. The time spent exploring each object was quantified using AnyMaze video tracking software using the manufacturer define NOR protocol. Novel object preference (%) and the discrimination index (time with novel)/(novel + familiar) * 100) were calculated for each mouse using AnyMaze software."}, "AIM2": {"test_system": "AIM2", "assay": "AIM2 in vitro selectivity assay (THP1-KO-NLRP3 cells, Poly(dA:dT), IL-1β)", "type": "cell-based", "conditions": "n = 2; top concentration 50 µM", "protocol": "THP1-KO-NLRP3 cells (Invivogen, San Diego, CA), resuspended in RPMI 1640 (Thermo Fisher Scientific) supplemented with 25 mM HEPES (Thermo Fisher Scientific), 10% FBS (Thermo Fisher Scientific) and 1% Penicillin-Streptomycin (Thermo Fisher Scientific), were seeded at 75,000 cells/well in a 96-well cell culture plate and treated with 50 ng/ml Phorbol 12-myristate 13-acetate (PMA, Millipore) for 24 h at 37 °C with 5% CO2. The next day, the media was replaced with fresh media containing 2.2% FBS, and cells were pretreated for 60 min with VEN-02XX (top concentration 50 µM; 5-fold titration) before DNA transfection. Lipofectamine 2000 (Thermo Fisher Scientific), for a final concentration of 2 µg/ml, and Poly(dA:dT) (Invivogen), for a final concentration of 1 µg/ml, were mixed together in OptiMEM (Thermo Fisher Scientific) 5 min before their addition to the cells. After a 24-h incubation at 37 °C with 5% CO2, supernatants were collected and IL-1β levels determined in an electrochemiluminescence immunoassay (Mesoscale Discovery)."}, "5XFAD/Rubicon KO mice [2]": {"test_system": "5XFAD/Rubicon KO mice", "assay": "Brain immunohistochemistry (Iba1, Aβ, pTau S396, NeuN) in 5XFAD/Rubicon KO mice", "type": "in vivo, mouse", "conditions": "9 weeks PO QD", "protocol": "as §1\nFollowing post-mortem collection, the brain was placed in a mouse brain matrix and sliced along the sagittal suture to separate the hemispheres. The left hemisphere was immediately processed for downstream biochemical analyses by snap freezing in liquid nitrogen. The right half was drop-fixed in 4% PFA in PBS for 24 h and then washed 5x in fresh PBS before being submerged in 30% sucrose cryoprotectant solution for 24 h. After 24 h, brains were frozen in cryomolds in a 2:1 mixture of 30% sucrose and optimal cutting temperature compound (OCT), cryomolds were stored at −80 °C until use. For slide preparation, brains were allowed to acclimatize to −20 °C in a Thermo Shandon cryotome. After equilibration at −20 °C, tissue was cryostat sectioned at 25 μm (cortex) or 40 μm (free floating sections for hippocampus). Steam-mediated antigen retrieval was performed using 1x citrate buffer. Sections were rinsed in PBS, blocked in 3% bovine serum albumin/0.2% Triton X-100/PBS for 1 h, and incubated with primary antibodies in blocking buffer overnight at 4 °C (1:200 goat anti-Iba1 [Novus Biologicals, Centennial, CO], 1:500 mouse anti-Aβ 82E1 MOAB [Immuno-Biological Laboratories, Inc., Spring Lake Park, MN], 1:200 rabbit anti-pTau S396 [Cell Signaling, Danvers, MA], 1:200 mouse anti-NeuN [Cell Signaling]). Sections were incubated with appropriate secondary antibodies (Jackson ImmunoResearch, West Grove, PA) for 1 h at room temperature. For the complete list of antibodies please reference Supplementary Table 2. ProLong™ Diamond or ProLong™ Gold Antifade Mountant with or without 4’,6-diamidino-2-phenylindole (DAPI) counterstain (Thermo Fisher Scientific, Waltham, MA). Slides were imaged on a Zeiss Axio-observer A1 inverted microscope with an Andor iXon EMCCD camera and X-Cite LED fluorescence unit. Image analysis was performed using Fiji and 3DMorph AnalyzeSkeleton for microglial analyses."}}}
{"molecule": "CC(C)(O)CNc1nnc(-c2ccc(Cl)cc2C(F)(F)F)c2ccncc12", "note": "[VEN-02XX]", "values": [{"measurement": "novel object recognition", "setting": "5XFAD/Rubicon KO mice [1]; 9 weeks, 0.01, 1, 20 mg/kg PO QD vs vehicle", "result": "striking dose-dependent improvement"}, {"measurement": "novel object recognition, learning and memory", "setting": "5XFAD/Rubicon KO mice [1]; 9 weeks, 20 mg/kg PO QD", "result": "restoration of learning and memory to near wild type control levels for most animals"}, {"measurement": "block of IL-1β release downstream of AIM2", "setting": "AIM2", "result": "inability to block IL-1β release"}, {"measurement": "microglial branch length", "setting": "5XFAD/Rubicon KO mice [2]; 20 mg/kg, 3DMorph", "result": "significant increases in microglial branch length"}, {"measurement": "pTau S396 signal", "setting": "5XFAD/Rubicon KO mice [2]; 20 mg/kg, cortex and CA3 region of hippocampus", "result": "almost complete suppression in pTau signal"}, {"measurement": "microglia/plaque association (co-localization of Iba1 with amyloid)", "setting": "5XFAD/Rubicon KO mice [2]", "result": "robust disassociation of the microglia from the Aβ plaques"}, {"measurement": "microglial soma volume", "setting": "5XFAD/Rubicon KO mice [2]; 3DMorph", "result": "commensurate decreases in soma volume in a dose-dependent and statistically significant manner"}, {"measurement": "gross microglial morphology", "setting": "5XFAD/Rubicon KO mice [2]; Iba1 staining", "result": "transition from the disease-associated active ameboid morphology towards a homeostatic ramified morphology"}, {"measurement": "CA3 and dentate gyrus thickness", "setting": "5XFAD/Rubicon KO mice [2]; NeuN stained sections", "result": "significantly increased both CA3 and dentate gyrus (DG) thickness"}, {"measurement": "phosphorylated tau (pTau S396) mean area", "setting": "5XFAD/Rubicon KO mice [2]; cortex and CA3 region of hippocampus", "result": "dose-dependent and statistically significant reduction in phosphorylated tau"}, {"measurement": "Iba1 mean area (microglial activation)", "setting": "5XFAD/Rubicon KO mice [2]; cortex and hippocampus", "result": "reduced the cumulative signal of the key microglial activation marker, Iba1, in both the cortex and hippocampus in a dose-dependent and statistically significant manner"}, {"measurement": "NeuN+ cell count (neuronal numbers)", "setting": "5XFAD/Rubicon KO mice [2]; cortex and hippocampus", "result": "robust dose-dependent and statistically significant neuroprotective effect"}, {"measurement": "Aβ plaque area/size", "setting": "5XFAD/Rubicon KO mice [2]; cortex and hippocampus, especially at higher doses", "result": "significant reduction in Aβ plaque area/size in both the cortex and hippocampus in a dose-dependent manner"}, {"measurement": "Aβ plaque burden (cumulative plaque #)", "setting": "5XFAD/Rubicon KO mice [2]; cortex and hippocampus, did not reach statistical significance", "result": "trending reduction in Aβ plaque burden"}]}
